From patent US11384055B2 (BIOMARIN PHARMACEUTICAL INC., priority 2017, dated 2022)
pIC50: −log10 of the molar value.

Target: T1, Human GO (Homo sapiens, UniProt Q9UJM8)
T1 construct: purchased Novus Biologicals NBP1-72412
T1 sequence (Q9UJM8 1-370): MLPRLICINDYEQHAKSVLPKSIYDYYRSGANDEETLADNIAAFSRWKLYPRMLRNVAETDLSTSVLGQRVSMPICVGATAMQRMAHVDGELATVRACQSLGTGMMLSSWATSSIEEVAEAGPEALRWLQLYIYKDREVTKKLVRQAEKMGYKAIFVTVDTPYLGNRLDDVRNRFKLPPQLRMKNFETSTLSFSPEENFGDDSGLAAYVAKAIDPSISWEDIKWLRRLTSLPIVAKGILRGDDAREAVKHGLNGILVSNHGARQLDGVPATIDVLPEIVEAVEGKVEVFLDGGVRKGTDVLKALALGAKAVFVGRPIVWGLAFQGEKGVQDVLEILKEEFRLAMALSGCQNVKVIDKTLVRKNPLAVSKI
Experiment: GO enzymatic assay (coupled fluorescence/HRP assay, glycolate substrate)
Assay type: biochemical
Conditions: not given
Method in brief: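 Coupled HRP/fluorescence read-out of glycolate oxidation by human GO in 50 mM potassium phosphate buffer (pH 7). Inhibitors added across a concentration range.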

pIC50	SMILES
> 7.00	O=C(O)c1[nH]nnc1-c1ccc(Cl)c(Cl)c1 [Compound 125, 4-(3,4-dichlorophenyl)-1H-1,2,3-triazole-5-carboxylic acid]
> 7.00	O=C(O)c1[nH]nnc1-c1ccc(-c2ccc(Cl)cc2)cc1 [Compound 126, 2,2,2-trifluoroacetate]
6.00 to 7.00	O=C(O)c1[nH]nnc1-c1ccc(-c2ccc(OC(F)(F)F)cc2)cc1 [Compound 128]
> 7.00	O=C(O)c1[nH]nnc1-c1ccc2cc(Cl)ccc2c1 [Compound 133, 4-(6-chloronaphthalen-2-yl)-1H-1,2,3-triazole-5-carboxylic acid]
> 7.00	O=C(O)c1[nH]nnc1-c1cccc(OC(F)(F)F)c1 [Compound 135, 4-(3-(trifluoromethoxy)phenyl)-1H-1,2,3-triazole-5-carboxylic acid]

The remaining lines, values behind:

SMILES	pIC50
CC(C)(C)C(=O)OCn1nnc(Oc2ccc(Cl)c(Cl)c2)c1C(=O)O [Compound 102, 4-(3,4-dichlorophenoxy)-1-((pivaloyloxy)methyl)-1H-1,2,3-triazole-5-carboxylic acid]	6.00 to 7.00
CC(C)C(=O)OCn1nnc(Oc2ccc(Cl)c(Cl)c2)c1C(=O)O [Compound 103, 4-(3,4-dichlorophenoxy)-1-((isobutyryloxy)methyl)-1H-1,2,3-triazole-5-carboxylic acid]	6.00 to 7.00
CC(=O)OCn1nnc(Oc2ccc(Cl)c(Cl)c2)c1C(=O)O [Compound 104, 1-(acetoxymethyl)-4-(3,4-dichlorophenoxy)-1H-1,2,3-triazole-5-carboxylic acid]	6.00 to 7.00
O=C(O)c1[nH]nnc1-c1ccc(-c2ccc(Cl)cc2)c(Cl)c1 [Compound 130, 2,2,2-trifluoroacetate]	> 7.00

Same assay, conditions: Table 1; read-out: Range (range of IC50 values calculated from the enzymatic assays)

pIC50	SMILES
> 7.00	O=C(O)c1[nH]nnc1Oc1ccc2ccncc2c1 [Compound 118, 4-(isoquinolin-7-yloxy)-1H-1,2,3-triazole-5-carboxylic acid 2,2,2-trifluoroacetate]
> 7.00	O=C(O)c1[nH]nnc1Oc1ccc(-c2ccc(OC(F)(F)F)cc2)c(Cl)c1 [Compound 119, 4-((2-chloro-4′-(trifluoromethoxy)-[1,1′-biphenyl]-4-yl)oxy)-1H-1,2,3-triazole-5-carboxylic acid]
6.00 to 7.00	O=C(O)c1[nH]nnc1Oc1ccc2ncccc2c1 [Compound 120, 4-(quinolin-6-yloxy)-1H-1,2,3-triazole-5-carboxylic acid 2,2,2-trifluoroacetate]
6.00 to 7.00	O=C(O)c1[nH]nnc1Oc1ccc2cnccc2c1 [Compound 121, 4-(isoquinolin-6-yloxy)-1H-1,2,3-triazole-5-carboxylic acid 2,2,2-trifluoroacetate]
> 7.00	O=C(O)c1[nH]nnc1Oc1ccc(-c2ccc3ncccc3c2)cc1 [Compound 122, 5-(4-(quinolin-6-yl)phenoxy)-1H-1,2,3-triazole-4-carboxylic acid]
> 7.00	O=C(O)c1[nH]nnc1-c1csc(-c2ccc(Cl)c(Cl)c2)n1 [Compound 124, 4-(2-(3,4-dichlorophenyl)thiazol-4-yl)-1H-1,2,3-triazole-5-carboxylic acid]
> 7.00	O=C(O)c1[nH]nnc1-c1ccc(Oc2ccc(Cl)cc2)cc1 [Compound 127, 4-(4-(4-chlorophenoxy)phenyl)-1H-1,2,3-triazole-5-carboxylic acid]
> 7.00	O=C(O)c1[nH]nnc1-c1cccc(-c2ccc(Cl)c(Cl)c2)c1 [Compound 129, 4-(3′,4′-dichloro-[1,1′-biphenyl]-3-yl)-1H-1,2,3-triazole-5-carboxylic acid]
> 7.00	O=C(O)c1[nH]nnc1-c1cccc(Oc2ccc(Cl)c(Cl)c2)c1 [Compound 131, 4-(3-(3,4-dichlorophenoxy)phenyl)-1H-1,2,3-triazole-5-carboxylic acid 2,2,2-trifluoroacetate]
> 7.00	O=C(O)c1[nH]nnc1-c1ccc2cc(Cl)ccc2n1 [Compound 132, 4-(6-chloroquinolin-2-yl)-1H-1,2,3-triazole-5-carboxylic acid 2,2,2-trifluoroacetate]
< 5.00	O=C(O)c1[nH]nnc1-c1nccc2ccc(Cl)cc12 [Compound 134, 4-(7-chloroisoquinolin-1-yl)-1H-1,2,3-triazole-5-carboxylic acid]
6.00 to 7.00	O=C(O)c1[nH]nnc1-c1ccc(OC(F)(F)F)cc1 [Compound 136, 4-(4-(trifluoromethoxy)phenyl)-1H-1,2,3-triazole-5-carboxylic acid]
6.00 to 7.00	O=C(O)c1[nH]nnc1-c1ccc(OCC2CCCC2)cc1 [Compound 137, 4-(4-(cyclopentylmethoxy)phenyl)-1H-1,2,3-triazole-5-carboxylic acid]
6.00 to 7.00	O=C(O)c1[nH]nnc1-c1ccc(OC2CCCC2)cc1 [Compound 138, 4-(4-(cyclopentyloxy)phenyl)-1H-1,2,3-triazole-5-carboxylic acid]
6.00 to 7.00	O=C(O)c1[nH]nnc1-c1ccc(-c2ccc(OC(F)(F)F)cc2)c(Cl)c1 [Compound 139, 4-(2-chloro-4′-(trifluoromethoxy)-[1,1′-biphenyl]-4-yl)-1H-1,2,3-triazole-5-carboxylic acid 2,2,2-trifluoroacetate]
> 7.00	O=C(O)c1[nH]nnc1C1=Cc2ccccc2CC1 [Compound 140, 4-(3,4-dihydronaphthalen-2-yl)-1H-1,2,3-triazole-5-carboxylic acid 2,2,2-trifluoroacetate]
6.00 to 7.00	O=C(O)c1[nH]nnc1C1CCc2ccccc2C1 (stereo not drawn) [Compound 141, 4-(1,2,3,4-tetrahydronaphthalen-2-yl)-1H-1,2,3-triazole-5-carboxylic acid 2,2,2-trifluoroacetate]
< 5.00	CC(C)N1CCc2cc(-c3nn[nH]c3C(=O)O)ccc2C1 [Compound 143, 4-(2-isopropyl-1,2,3,4-tetrahydroisoquinolin-6-yl)-1H-1,2,3-triazole-5-carboxylic acid 2,2,2-trifluoroacetate]
< 5.00	CC(C)N1CCc2ccc(-c3nn[nH]c3C(=O)O)cc2C1 [Compound 144, 4-(2-isopropyl-1,2,3,4-tetrahydroisoquinolin-7-yl)-1H-1,2,3-triazole-5-carboxylic acid 2,2,2-trifluoroacetate]

More lines, now with the values behind:

SMILES	pIC50
CC(=O)OCOC(=O)c1[nH]nnc1Oc1ccc2cc(Br)ccc2c1 [Compound 105, acetoxymethyl 4-((6-bromonaphthalen-2-yl)oxy)-1H-1,2,3-triazole-5-carboxylate]	5.00 to 6.00
O=C(O)c1[nH]nnc1Oc1ccc2cc(Cl)ccc2c1 [Compound 106, 4-((6-chloronaphthalen-2-yl)oxy)-1H-1,2,3-triazole-5-carboxylic acid 2,2,2-trifluoroacetate]	> 7.00
CC(C)(C)C(=O)OCOC(=O)c1[nH]nnc1Oc1ccc(Cl)c(Cl)c1 [Compound 107, (pivaloyloxy)methyl 4-(3,4-dichlorophenoxy)-1H-1,2,3-triazole-5-carboxylate]	5.00 to 6.00
CC(C)C(=O)OCOC(=O)c1[nH]nnc1Oc1ccc(Cl)c(Cl)c1 [Compound 108, (isobutyryloxy)methyl 4-(3,4-dichlorophenoxy)-1H-1,2,3-triazole-5-carboxylate]	6.00 to 7.00
CC(=O)OCOC(=O)c1[nH]nnc1Oc1ccc(Cl)c(Cl)c1 [Compound 109, acetoxymethyl 4-(3,4-dichlorophenoxy)-1H-1,2,3-triazole-5-carboxylate]	> 7.00
O=C(O)c1[nH]nnc1OC1CCc2cc(Cl)c(Cl)cc2C1 (stereo not drawn) [Compound 111, 4-((6,7-dichloro-1,2,3,4-tetrahydronaphthalen-2-yl)oxy)-1H-1,2,3-triazole-5-carboxylic acid 2,2,2-trifluoroacetate]	> 7.00
O=C(OC1CC1)c1[nH]nnc1Oc1ccc(Cl)c(Cl)c1 [Compound 112, cyclopropyl 4-(3,4-dichlorophenoxy)-1H-1,2,3-triazole-5-carboxylate]	< 5.00
O=C(O)c1[nH]nnc1Oc1ccc2cccnc2c1 [Compound 113, 4-(quinolin-7-yloxy)-1H-1,2,3-triazole-5-carboxylic acid 2,2,2-trifluoroacetate]	> 7.00
O=C(O)c1[nH]nnc1Oc1cccc(OC(F)(F)F)c1 [Compound 114, 4-(3-(trifluoromethoxy)phenoxy)-1H-1,2,3-triazole-5-carboxylic acid]	> 7.00
O=C(O)c1[nH]nnc1Oc1cnc2ccccc2c1 [Compound 115, 4-(quinolin-3-yloxy)-1H-1,2,3-triazole-5-carboxylic acid 2,2,2-trifluoroacetate]	6.00 to 7.00
O=C(OC1CC1)c1[nH]nnc1Oc1ccc2c(c1)CCCC2 [Compound 116, cyclopropyl 4-((5,6,7,8-tetrahydronaphthalen-2-yl)oxy)-1H-1,2,3-triazole-5-carboxylate]	< 5.00
O=C(O)c1[nH]nnc1OC1CCc2ccccc2C1 (stereo not drawn) [Compound 117, 4-((1,2,3,4-tetrahydronaphthalen-2-yl)oxy)-1H-1,2,3-triazole-5-carboxylic acid 2,2,2-trifluoroacetate]	> 7.00

Same assay, conditions: Table 6; GO enzymatic assay; read-out: Range (range of IC50 values calculated from the enzymatic assays)

pIC50	SMILES
> 7.00	O=C(O)c1[nH]nnc1O[C@@H]1CCc2cc(Cl)c(Cl)cc2C1 [Compound 111-1, (R)-4-((6,7-dichloro-1,2,3,4-tetrahydronaphthalen-2-yl)oxy)-1H-1,2,3-triazole-5-carboxylic acid]
> 7.00	O=C(O)c1[nH]nnc1O[C@H]1CCc2cc(Cl)c(Cl)cc2C1 [Compound 111-2, (S)-4-((6,7-dichloro-1,2,3,4-tetrahydronaphthalen-2-yl)oxy)-1H-1,2,3-triazole-5-carboxylic acid]
